{"source": "paper PMC4161160", "about": "(Journal of Medicinal Chemistry, 2014)", "key": {"[1]": {"assay": "Metabolite identification in human liver microsomes", "format": "in vitro ADME", "conditions": "50 μM compound, 1 mg/mL microsomal protein, high resolution MS"}, "[2]": {"assay": "Microsomal stability, over the tested liver microsome species", "format": "in vitro ADME", "conditions": "mouse, rat"}, "[3]": {"molecular_target": "Bovine brain tubulin (Bos taurus, UniProt P81947+Q6B856)", "sequence (Q6B856 whole entry)": "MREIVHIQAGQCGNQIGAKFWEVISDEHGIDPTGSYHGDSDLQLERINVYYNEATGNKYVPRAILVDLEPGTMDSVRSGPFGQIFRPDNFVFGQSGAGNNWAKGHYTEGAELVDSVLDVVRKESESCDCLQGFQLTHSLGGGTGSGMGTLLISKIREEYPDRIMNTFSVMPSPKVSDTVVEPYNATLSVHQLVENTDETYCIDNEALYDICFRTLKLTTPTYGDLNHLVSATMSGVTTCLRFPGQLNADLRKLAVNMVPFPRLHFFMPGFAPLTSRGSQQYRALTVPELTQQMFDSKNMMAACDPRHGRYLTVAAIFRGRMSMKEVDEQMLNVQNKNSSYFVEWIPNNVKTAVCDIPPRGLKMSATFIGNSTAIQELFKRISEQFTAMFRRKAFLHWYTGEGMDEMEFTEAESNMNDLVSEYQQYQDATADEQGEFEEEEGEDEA", "sequence (P81947 whole entry)": "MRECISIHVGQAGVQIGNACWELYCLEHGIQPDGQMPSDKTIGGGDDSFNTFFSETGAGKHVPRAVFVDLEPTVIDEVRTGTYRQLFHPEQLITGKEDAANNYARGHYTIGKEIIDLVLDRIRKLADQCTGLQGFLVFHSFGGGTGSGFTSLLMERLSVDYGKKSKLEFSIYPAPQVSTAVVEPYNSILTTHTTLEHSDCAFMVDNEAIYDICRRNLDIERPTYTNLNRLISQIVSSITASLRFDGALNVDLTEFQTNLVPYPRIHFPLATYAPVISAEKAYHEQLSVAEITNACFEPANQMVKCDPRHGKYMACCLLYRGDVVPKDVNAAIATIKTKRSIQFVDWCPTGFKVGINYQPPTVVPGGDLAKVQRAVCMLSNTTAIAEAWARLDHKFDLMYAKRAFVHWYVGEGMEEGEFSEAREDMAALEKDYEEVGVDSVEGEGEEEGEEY", "assay": "In vitro tubulin polymerization assay", "format": "biochemical", "conditions": "for Inhibition of tubulin polymerization: 20 min incubation, compared to vehicle"}, "[4]": {"test_system": "LNCaP", "assay": "Antiproliferative SRB assay, LNCaP prostate cancer cells", "format": "cell-based, human", "conditions": "compared to SMART compound 10 and 4"}, "[5]": {"test_system": "A375", "assay": "Antiproliferative SRB assay, A375 melanoma cells", "format": "cell-based", "conditions": "compared to SMART compound 10 and 4"}, "[6]": {"assay": "Microsomal stability assay, human liver microsomes", "format": "in vitro ADME", "conditions": "for Fold improvement of metabolic stability in human microsomes: compared to parent SMART compound; for T1/2 in human liver microsomes: 0.5 μM compound, 1 mg/mL microsomal protein"}, "[7]": {"conditions": "cited from earlier work"}, "[8]": {"assay": "Microsomal stability assay, mouse liver microsomes", "format": "in vitro ADME", "conditions": "0.5 μM compound, 1 mg/mL microsomal protein"}, "[9]": {"assay": "Microsomal stability assay, rat liver microsomes", "format": "in vitro ADME", "conditions": "0.5 μM compound, 1 mg/mL microsomal protein"}, "[10]": {"conditions": "cited from earlier work", "remark": "listed apart in the source"}, "[11]": {"test_system": "prostate cancer cells", "assay": "Antiproliferative activity, prostate cancer cells overall", "format": "cell-based, human", "conditions": "compared to parent PAT compound"}}, "note": "Several values for one entry are separate records, joined by “and”; a condition that tells them apart may be missing. Identical values can stand only once. Like-named read-outs stand apart in the source and are kept apart here.", "data": [{"molecule": "COCOc1c(OC)cc(C(=O)c2csc(-c3ccccc3)n2)cc1OC", "note": "[compound 15, (3,5-Dimethoxy-4-(methoxymethoxy)phenyl)(2-phenylthiazol-4-yl)methanone]", "values": [{"measurement": "Major metabolites / metabolic pathway", "setting": "[1]", "result": "removal of the MOM group to form M1 is the major metabolic pathway"}, {"measurement": "half-life at 0.5 μM", "setting": "[2]; human, liver microsomes, pH 7.4", "result": "< 0.167", "unit": "h"}]}, {"molecule": "COc1cc(-c2nccc3[nH]c(-c4ccc5[nH]ccc5c4)nc23)cc(OC)c1OC", "note": "[compound 7, 2-(1H-Indol-5-yl)-4-(3,4,5-trimethoxyphenyl)-1H-imidazo[4,5-c]pyridine]", "values": [{"measurement": "inhibition at 5 µM", "setting": "[3]; read-out: Inhibition of tubulin polymerization", "result": "~33", "unit": "%"}, {"measurement": "Fold improvement of IC50 against LNCaP", "setting": "[4]", "result": "at least 5 fold"}, {"measurement": "Fold improvement of IC50 against A375", "setting": "[5]", "result": "at least 5 fold"}, {"measurement": "Fold improvement of metabolic stability in human microsomes", "setting": "[6]", "result": "2–3 fold"}, {"measurement": "Major metabolites / metabolic pathway", "setting": "[1]", "result": "M14 is the major metabolite"}]}, {"molecule": "COc1cc(C(=O)c2csc(Nc3ccccc3)n2)cc(OC)c1OC", "note": "[PAT]", "values": [{"measurement": "Oral bioavailability", "setting": "[7]", "result": 21, "unit": "%"}, {"measurement": "Oral bioavailability (F)", "setting": "[7]; reference not given", "result": "> 30", "unit": "%"}]}, {"molecule": "2-(1H-Indol-3-yl)-4-(3,4,5-trimethoxyphenyl)-1H-benzo[d]imidazole [compound 4]", "values": [{"measurement": "Inhibition of tubulin polymerization", "setting": "[3]; 5 μM", "result": 30, "unit": "%"}, {"measurement": "Inhibition of tubulin polymerization", "setting": "[3]; 10 μM", "result": 60, "unit": "%"}, {"measurement": "T1/2 in mouse liver microsomes", "setting": "[8]", "result": "0.892 ± 0.04", "unit": "h"}, {"measurement": "T1/2 in rat liver microsomes", "setting": "[9]", "result": "1.2 ± 0.0767", "unit": "h"}, {"measurement": "T1/2 in human liver microsomes", "setting": "[6]", "result": "0.85 h and 0.845 ± 0.02 h"}, {"measurement": "Fold improvement of metabolic stability in human microsomes", "setting": "[6]", "result": "2–3 fold"}, {"measurement": "Major metabolites / metabolic pathway", "setting": "[1]", "result": "o-demethylation (M9) and monohydroxylation (M10) are the major products"}]}, {"molecule": "(4-(2-Aminoethyl)-3,5-dimethoxyphenyl)(2-phenylthiazol-4-yl)methanone [compound 18]", "values": [{"measurement": "T1/2 in mouse liver microsomes", "setting": "[8]", "result": "2.05 ± 0.128", "unit": "h"}, {"measurement": "T1/2 in rat liver microsomes", "setting": "[9]", "result": "3.75 ± 0.21", "unit": "h"}, {"measurement": "T1/2 in human liver microsomes", "setting": "[6]", "result": "1.833 ± 0.0917", "unit": "h"}, {"measurement": "Major metabolites / metabolic pathway", "setting": "[1]", "result": "M6 (dealkylation) and M8 (ketone reduction) are the major metabolites"}, {"measurement": "T1/2 in the tested liver microsomes species", "setting": "[2]; summary over human", "result": "1.83 to 3.75", "unit": "h"}]}, {"molecule": "COc1cc(C(=O)c2csc(-c3ccccc3)n2)cc(OC)c1OC", "note": "[SMART 10]", "values": [{"measurement": "T1/2 in mouse liver microsomes", "setting": "[10]", "result": "≪5 min"}]}, {"molecule": "COc1cc(C(=O)c2csc(Nc3ccc4[nH]ccc4c3)n2)cc(OC)c1OC", "note": "[compound 33, (2-((1H-Indol-5-yl)amino)thiazol-4-yl)(3,4,5-trimethoxyphenyl)methanone]", "values": [{"measurement": "Fold change of IC50 on prostate cancer cells", "setting": "[11]", "result": "2–3 fold"}]}]}
